How the values were obtained:
Kallikrein = assay: Anti-kallikrein activity (inhibition of TAME hydrolysis); type: biochemical; conditions: read-out: ID50, kallikrein
Procedure, shortened: (§1)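 Inhibition of enzymatic TAME (tosylarginine methyl ester) hydrolysis, per Muramatsu et al. Values are ID50, the molar concentration of compound inhibiting 50% of each enzyme's TAME-hydrolysing activity.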

Trypsin = molecular target: T1, Trypsin (Bos taurus, UniProt P00760); assay: Anti-trypsin activity (inhibition of TAME hydrolysis); type: biochemical; conditions: read-out: ID50, trypsin
T1 sequence (P00760 24-246): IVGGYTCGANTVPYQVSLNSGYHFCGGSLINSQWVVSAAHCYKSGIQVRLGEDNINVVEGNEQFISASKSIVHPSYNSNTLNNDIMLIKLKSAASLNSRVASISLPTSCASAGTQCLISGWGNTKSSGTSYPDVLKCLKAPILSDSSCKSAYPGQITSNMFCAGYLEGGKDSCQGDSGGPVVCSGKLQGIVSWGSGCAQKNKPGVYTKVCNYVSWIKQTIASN
Procedure, shortened: as §1

Cls = molecular target: T2, Cls (Homo sapiens, UniProt P09871); assay: Anti-Cl esterase activity, Cls (ATEE hydrolysis); type: biochemical; conditions: hydrolysis of ATEE; read-out: Anti-Cl activity, Cls (50% inhibition)
T2 sequence (P09871 438-688 limits assumed): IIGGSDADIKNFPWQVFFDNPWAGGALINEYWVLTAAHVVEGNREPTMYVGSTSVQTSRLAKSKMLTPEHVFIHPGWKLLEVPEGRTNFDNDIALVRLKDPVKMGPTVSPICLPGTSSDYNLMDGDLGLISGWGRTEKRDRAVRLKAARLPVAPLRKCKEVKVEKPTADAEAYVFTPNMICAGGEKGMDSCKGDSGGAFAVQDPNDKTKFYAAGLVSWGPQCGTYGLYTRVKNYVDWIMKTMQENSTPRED
T2 sequence (P09871 16-437 limits assumed): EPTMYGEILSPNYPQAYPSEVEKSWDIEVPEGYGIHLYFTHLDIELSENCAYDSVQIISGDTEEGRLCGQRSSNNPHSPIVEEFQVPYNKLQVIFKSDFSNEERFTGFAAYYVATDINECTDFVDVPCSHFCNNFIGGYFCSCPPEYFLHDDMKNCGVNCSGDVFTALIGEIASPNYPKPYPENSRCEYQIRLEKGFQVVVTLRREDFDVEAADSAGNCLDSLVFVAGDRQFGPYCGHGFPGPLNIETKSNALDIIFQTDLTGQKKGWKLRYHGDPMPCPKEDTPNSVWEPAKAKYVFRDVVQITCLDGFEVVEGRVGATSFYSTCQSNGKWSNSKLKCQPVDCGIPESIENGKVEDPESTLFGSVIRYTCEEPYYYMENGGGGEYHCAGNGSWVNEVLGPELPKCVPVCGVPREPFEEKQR
Procedure: The anti-Cl esterase (Clr, Cls) activity was determined according to the method of Okamura et al. [K. Okamura, M. Muramatsu and B. Fujii, Biochem. Biophys. […] The figures in Table 2 have the following meanings:
Cls: Molar concentration of the test compound which inhibits 50% of the ability of Cls to hydrolyse ATEE (acetyltyrosin ethyl ester).

Clr = molecular target: T3, Clr (Homo sapiens, UniProt P00736); assay: Anti-Cl esterase activity, Clr (AAME hydrolysis); type: biochemical; conditions: hydrolysis of AAME; read-out: Anti-Cl activity, Clr (ID50)
T3 sequence (P00736 464-705 limits assumed): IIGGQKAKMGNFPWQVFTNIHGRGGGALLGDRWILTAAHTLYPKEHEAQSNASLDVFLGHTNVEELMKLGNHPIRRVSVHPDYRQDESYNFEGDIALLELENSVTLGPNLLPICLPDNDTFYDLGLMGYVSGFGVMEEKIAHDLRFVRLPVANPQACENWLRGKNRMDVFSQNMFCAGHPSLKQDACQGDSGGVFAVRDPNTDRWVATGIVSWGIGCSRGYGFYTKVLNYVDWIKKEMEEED
T3 sequence (P00736 18-463 limits assumed): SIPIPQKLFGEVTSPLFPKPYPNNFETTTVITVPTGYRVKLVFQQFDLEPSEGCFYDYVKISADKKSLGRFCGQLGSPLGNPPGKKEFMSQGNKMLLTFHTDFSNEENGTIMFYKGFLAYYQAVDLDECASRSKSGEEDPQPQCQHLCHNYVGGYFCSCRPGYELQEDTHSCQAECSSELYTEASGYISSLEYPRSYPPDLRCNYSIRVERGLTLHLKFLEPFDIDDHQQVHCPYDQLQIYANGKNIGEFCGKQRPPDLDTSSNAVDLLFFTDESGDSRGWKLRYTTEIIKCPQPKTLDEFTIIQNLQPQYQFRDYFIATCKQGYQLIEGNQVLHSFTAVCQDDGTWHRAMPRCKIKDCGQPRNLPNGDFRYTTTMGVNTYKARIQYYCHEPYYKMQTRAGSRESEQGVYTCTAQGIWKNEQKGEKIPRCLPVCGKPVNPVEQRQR
Procedure: The anti-Cl esterase ([…]) activity was determined according to the method of Okamura et al. [K. Okamura, M. Muramatsu and B. Fujii, Biochem. Biophys.

Thrombin = Thrombin (Homo sapiens, UniProt P00734); assay: biochemical; conditions: TAME hydrolysis; read-out: ID50, thrombin
complement = assay: Inhibition of complement mediated hemolysis; type: cell-based
Plasmin = Plasmin (Homo sapiens, UniProt P00747); assay: Anti-plasmin activity (inhibition of TAME hydrolysis); type: biochemical; conditions: read-out: ID50, plasmin
Procedure, shortened: as §1

Sequence of Plasmin (P00747 581-810 limits assumed, species assumed): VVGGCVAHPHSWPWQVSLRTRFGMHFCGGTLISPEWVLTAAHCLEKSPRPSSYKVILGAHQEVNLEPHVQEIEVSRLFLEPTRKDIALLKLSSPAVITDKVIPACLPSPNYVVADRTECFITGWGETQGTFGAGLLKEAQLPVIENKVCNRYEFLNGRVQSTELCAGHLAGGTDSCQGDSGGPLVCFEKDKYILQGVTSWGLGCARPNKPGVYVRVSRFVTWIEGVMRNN
Sequence of Plasmin (P00747 97-580 limits assumed, species assumed): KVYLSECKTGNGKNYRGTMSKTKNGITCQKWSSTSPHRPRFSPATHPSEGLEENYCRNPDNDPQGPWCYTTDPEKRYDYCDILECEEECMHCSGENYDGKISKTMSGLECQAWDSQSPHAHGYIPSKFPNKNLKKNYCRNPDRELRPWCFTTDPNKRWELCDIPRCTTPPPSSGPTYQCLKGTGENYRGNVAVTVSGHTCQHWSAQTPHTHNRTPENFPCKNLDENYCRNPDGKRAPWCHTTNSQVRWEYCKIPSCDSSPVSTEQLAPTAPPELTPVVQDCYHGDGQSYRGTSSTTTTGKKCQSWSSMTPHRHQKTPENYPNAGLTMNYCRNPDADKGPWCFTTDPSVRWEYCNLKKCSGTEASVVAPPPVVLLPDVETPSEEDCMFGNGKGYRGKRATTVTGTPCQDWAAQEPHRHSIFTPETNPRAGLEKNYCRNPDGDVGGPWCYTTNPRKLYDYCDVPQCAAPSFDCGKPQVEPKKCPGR

Row | SMILES | IC50 (Kallikrein) | IC50 (Trypsin) | IC50 (Cls) | IC50 (Clr) | IC50 (Thrombin) | Inhibition of complement mediated hemolysis (%) (complement; compound at 1 × 10^-4) | Inhibition of complement mediated hemolysis (%) (complement; compound at 1 × 10^-5) | Inhibition of complement mediated hemolysis (%) (complement; compound at 1 × 10^-6) | Inhibition of complement mediated hemolysis (%) (complement; compound at 1 × 10^-7) | IC50 (Plasmin)
1 | CC(C)(C)c1ccc(C(=O)Oc2ccc(C(=N)N)cc2[N+](=O)[O-])cc1 [Compound 38] | 1000 nM | 20 nM | 300 nM | 300 nM | 200 nM | 98.6% | 100% | 96.1% | 37.2% | 400 nM
2 | CC(C)(C)c1ccc(C(=O)Oc2ccc(C(=N)N)cc2C(=O)c2ccccc2)cc1 [Compound 39] | 400 nM | 10 nM | 200 nM | 400 nM | 200 nM | 0% | 95.4% | 96.8% | 52.1% | 200 nM
3 | COc1ccc(C(=O)Oc2ccc(C(=N)N)cc2C(=O)c2ccccc2)cc1 [Compound 42] | 300 nM | 70 nM | 40 nM | 1000 nM | 70 nM | 100% | 99.1% | 70.0% | 7.6% | 300 nM
4 | CCCCOc1ccc(C(=O)Oc2ccc(C(=N)N)cc2[N+](=O)[O-])cc1 [Compound 44] | 300 nM | 20 nM | 600 nM | 4000 nM | 2000 nM | 99.1% | 94.1% | 29.0% | 29.2% | 3000 nM
5 | N=C(N)c1ccc(OC(=O)c2ccc(OCc3ccccc3)cc2)c(C(=O)c2ccccc2)c1 [Compound 45, 4-amidino-2-benzoylphenyl 4-benzyloxybenzoate] | 400 nM | 20 nM | 400 nM | 900 nM | 200 nM | 0% | 90.2% | 6.0% | 0% | 300 nM
6 | N=C(N)c1ccc(OC(=O)c2ccc(O)cc2)c(C(=O)c2ccccc2)c1 [Compound 46, 4-amidino-2-benzoylphenyl 4-hydroxybenzoate] | 300 nM | 50 nM | 90 nM | 2000 nM | 40 nM | 100% | 98.0% | 67.6% | 5.0% | 600 nM
7 | N=C(N)c1cc(Br)c(OC(=O)c2ccc3c(c2)OCO3)c(Br)c1 [Compound 47, 4-amidino-2,6-dibromophenyl 3,4-methylenedioxybenzoate] | > 10000 nM | > 10000 nM | 30 nM | > 10000 nM | > 10000 nM | 33.5% | 10.4% | 13.4% | 0% | > 10000 nM
8 | N=C(N)c1ccc(OC(=O)C=Cc2ccc3c(c2)OCO3)c([N+](=O)[O-])c1 [Compound 48] | 8000 nM | 2000 nM | 3000 nM | > 10000 nM | 400 nM | 94.0% | 94.8% | 75.3% | 23.2% | 200 nM
9 | COC(=O)c1ccc(C(=O)Oc2ccc(C(=N)N)cc2C(=O)c2ccccc2)cc1 [Compound 50] | > 10000 nM | 4000 nM | > 10000 nM | 9000 nM | 200 nM | 98.8% | 75.4% | 6.9% | 0% | 500 nM
10 | COC(=O)c1cc(C(=N)N)ccc1OC(=O)c1ccc(C=O)cc1 [Compound 51] | > 10000 nM | 200 nM | 3000 nM | > 10000 nM | 900 nM | 99.1% | 90.9% | 15.0% | 0% | 300 nM
11 | N=C(N)c1ccc(OC(=O)c2ccc(C=O)cc2)c(C(=O)c2ccccc2)c1 [Compound 52] | > 10000 nM | 3000 nM | 3000 nM | 5000 nM | 90 nM | 100% | 98.8% | 75.4% | 12.8% | 200 nM
12 | CC(=O)Oc1ccc(C=CC(=O)Oc2ccc(C(=N)N)cc2C(=O)c2ccccc2)cc1 [Compound 54, 4-amidino-2-benzoylphenyl 4-acetyloxycinnamate] | 400 nM | 20 nM | 200 nM | 2000 nM | 90 nM | 99.1% | 98.6% | 79.4% | 41.1% | 300 nM
13 | CC(=O)Nc1ccc(C(=O)Oc2ccc(C(=N)N)cc2C(=O)c2ccccc2)cc1 [Compound 56, 4-amidino-2-benzoylphenyl 4-acetylaminobenzoate] | 400 nM | 50 nM | 500 nM | 1000 nM | 60 nM | 99.1% | 98.1% | 88.1% | 20.4% | 300 nM
14 | COc1cc(C(=N)N)ccc1OC(=O)c1ccc(CNC(=O)OCc2ccccc2)cc1 [Compound 57, 4-amidino-2-methoxyphenyl 4-benzyloxycarbonylaminomethylbenzoate] | 3000 nM | 2000 nM | 2000 nM | > 10000 nM | 8000 nM | 70.5% | 14.8% | 2.3% | 0% | 200 nM

— patent publication US4570006A, “Amidine compound, process for producing same and anti-complement agent comprising same” (Torii & Co. Ltd., priority 1981, dated 1986)
